Assays:
[1] = system: FACS-purified Fox12-DsRed-positive cells; experiment: Estradiol and progesterone production by FACS-purified Fox12-DsRed-positive cells (ELISA of culture medium); assay type: cell-based, mouse; conditions: FSH 100 ng/ml or 8-br-cAMP 1 mM; cultured 24, 48 or 72 hours; versus vehicle (PBS) control; cells isolated on day 12 of ESC differentiation
Experimental: (§1) FIG. 5A is a graph showing estradiol production by FACS-purified Fox12-DsRed positive cells (2×10^3 cells per well), which spontaneously differentiated in embryonic stem cell cultures, maintained in culture for up to 3 days (FSH, 100 ng/ml; 8-br-cAMP, 1 mM). Data are the mean±SEM of 3 independent cultures (*, P<0.05 versus vehicle control).
as §1, with “5B” for “5A”, “progesterone” for “estradiol”
To identify and track ovarian somatic cells in differentiating ESC cultures, the expression of the early granulosa cell marker, Fox12, in differentiating ESC cultures was mapped. […] A 739 by region of the Fox12 gene promoter was identified using Genome Vista. The region was isolated from mouse genomic DNA and cloned into the pDsRed2-1 vector (Clontech, Mountain View, Calif.,) or the pLenti6 lentiviral construct containing the complete open reading frame of DsRed (Gateway Lentiviral System; Invitrogen), thus creating a DsRed expression vector under control of the Fox12 gene promoter.
Promoter activity and specificity were verified using mouse granulosa cells as a positive control and 293 cells (Invitrogen) as a negative control. To verify the Fox12 gene promoter-driven DsRed expression, undifferentiated TgOG2 ESCs were stably transfected with the Fox12-pDsRed2-1 construct via electroporation, followed by clonal selection and expansion. Alternatively, ESCs were virally transduced following initiation of differentiation using viral supernatant produced by 293 cells transfected with the Fox12-DsRed lentiviral construct (pLenti6-Fox12-DsRed). Cells were analyzed for expression of DsRed by fluorescence microscopy and isolated by fluorescence-activated cell sorting (FACS).
For FACS, differentiating ESCs were removed from the plate by either 0.25% trypsin-EDTA (prior to day 10 of differentiation) or manually scraped. […] The cells were analyzed and sorted using a FACS Aria flow cytometer (BD Biosciences, San Jose, Calif.).
Estradiol and progesterone concentrations were measured in culture medium from FACS-purified Fox12-DsRed-positive cells that had been re-plated and cultured for 24, 48 or 72 hours in the presence of PBS (vehicle), 100 ng/ml follicle stimulating hormone (FSH; NIDDK, NIH, Bethesda, Md.) or 1 mM 8-bromoadenosine-3′,5′-cyclic monophosphate (8-br-cAMP; Sigma-Aldrich). […]

[2] = system: OSC differentiation into oocytes; experiment: GCV treatment of transgenic mice with Stra8 promoter-driven HSVtk; counts of oocyte-containing primordial follicles; assay type: in vivo
Experimental: FIGS. 2A-D are graphs that show the OSCs of aged mice lose the ability to support primordial follicle formation. Transgenic mice, ranging from 2-11 months, having an inducible “suicide gene” (herpes simplex virus thymidine kinase or HSVtk) that specifically disrupts OSC differentiation into oocytes only in the presence of the HSVtk pro-drug ganciclovir (GCV), were tested for their ability to lose and regain their oocyte reserves after activation and deactivation of the suicide gene, respectively.
Animals and treatments. Transgenic pStra8-Gfp mice with expression of green fluorescent protein (GFP) driven by the promoter of the meiosis commitment gene, stimulated by retinoic acid gene 8 (Stra8;) mice were generated as described in Imudia et al., Fertil Steril, 100:1451-1458 (2013). Transgenic mice with herpes simplex virus thymidine kinase (HSVtk) expression driven by the Stra8 promoter were generated by replacing the GFP-coding sequence in the pStra8-Gfp construct with cDNA encoding GFP-fused HSVtk and the constructs were then sent to Genoway for generation of the transgenic lines, as described (Imudia et al., Fertil Steril, 100:1451-1458 (2013). For comparative studies, wild type and transgenic siblings from breeding colonies were used in parallel to rule out any potential effect of background strain on the outcomes. For treatments, the HSVtk pro-drug, ganciclovir (GCV; Roche), was dissolved in sterile water at 10 mg/ml, and then diluted in sterile 1×-concentrated phosphate-buffered saline (PBS) for daily dosing (10 mg/kg for 21 days, intraperitoneal injection). Control animals were injected with vehicle (PBS) in parallel.
Oocyte counts. Prior to the start of PBS or GCV injections, 21 days after daily dosing with GCV, and 21 days after ceasing GCV treatment, ovaries were collected from mice at the indicated ages, fixed, embedded in paraffin, and serially sectioned for histomorphometry-based quantification of the number of oocyte-containing primordial follicles, as detailed (Jones and Krohn, J Endocrinol, 21:469-495 (1961); Johnson et al., Nature, 428:145-150 (2004); and Wang and Tilly, Cell Cycle, 9:339-349 (2010)). All samples were assessed in a completely blinded fashion, and reproducibility was independently confirmed with randomly selected slides by a second observer. In all cases, variation in counts between observers was less than 7%.

Molecule | estradiol production [1] | progesterone production [1] | response of primordial follicle pool to GCV treatment ([2]; advanced aged mice, 10-11 months of age, 10 mg/kg daily for 21 days, intraperitoneal) | primordial follicle reserve after GCV treatment ([2]; middle-age adult mice, 5-6 months of age, 10 mg/kg daily for 21 days, intraperitoneal) | time for primordial follicle pool to regenerate back to control (PBS, vehicle) levels after ceasing GCV treatment ([2]; young adult (2-3 months) and middle-age (5-6 months) mice) [days] | primordial follicle reserve after GCV treatment ([2]; young adult mice, 2-3 months of age, 10 mg/kg daily for 21 days, intraperitoneal)
Nc1ncnc2c1nc(Br)n2[C@@H]1O[C@@H]2COP(=O)(O)O[C@H]2[C@H]1O [8-br-cAMP, 8-bromoadenosine-3′,5′-cyclic monophosphate] | significant increase | significantly enhance | – | – | – | –
Nc1nc(O)c2ncn(COC(CO)CO)c2n1 [GCV, ganciclovir] | – | – | completely refractory | reduced primordial follicle reserve | ≤ 21 | reduced primordial follicle reserve
follicle stimulating hormone [FSH] | significant increase | only 8-br-cAMP was able to significantly enhance | – | – | – | –
